PMC8868400, “Structure–Activity Relationships and Transcriptomic Analysis of Hypoxia-Inducible Factor Prolyl Hydroxylase Inhibitors” (Antioxidants, 2022)
Where “and” joins values, the source holds several entries; their conditions need not be identical. Equal values may be shown once. Entries after “also recorded” stand apart in the source; their conditions may differ. Read-outs that look alike come from different tables or passages of the source. Values belong to the compound of their own block, whether it stands above or below them.

Assays:
[1] = system: HIF1 ODD-luc reporter (intracellular HIF PHD), HIF1 ODD-luc/SH-SY5Y cell line; experiment: HIF1 ODD-luc reporter assay; format: cell-based, human; settings: for Potency in HIF1 ODD-luc reporter assay (in words, comparative) / IC50: SH-SY5Y, 3 h incubation; for IC50: read-out: IC50 of HIF1 ODD-luc reporter activation; for Interference of free iron with reporter activation: cells loaded with ferrous sulfate 20 min before drug
Protocol: The reporter assay on the HIF1 ODD-luc/SH-SY5Y cell line was performed as described in [10]. Drugs were freshly prepared as 10 mM stock solutions in DMSO, and right before the experiment were diluted to 50×-fold to the final concentration in the well, so each well with 100 μL medium was inoculated with 2 μL of the drug solution. Cells were incubated for 3 h and then lysed and assayed for luciferase activity. To evaluate the effect of iron, the cells were loaded with the corresponding concentrations of ferrous sulfate in the medium for 20 min before the drug’s addition. All experiments were performed in triplicate. The fold activation with respect to the background luminescence in the presence 2 μL DMSO aliquot was plotted against drug concentrations. The results are shown as average ± SD.
The HIF1 ODD-luc reporter assay employs a cell line stably expressing a reporter vector providing the continuous production of an oxygen-dependent domain of HIF1α fused via its C-terminus to N-terminus of firefly luciferase. The steady-state level of the fusion protein depends on the ratio of the rates of its production (pcmv promoter) and degradation upon hydroxylation, binding to VHL and proteasomal degradation. […] Enzyme inhibition results in an immediate response in the form of luciferase fusion accumulation. The performance of the fusion reporter is equivalent to monitoring the actual fate of intracellular HIFs upon enzyme inhibition. […] However, both vadadustat and roxadustat worked in a very high micromolar range (IC50 above 30 μM). […] The use of high concentrations of the αKG mimetic drugs to overcome the competition from the intracellular αKG may result in targeting other αKG-dependent pathways that are unrelated to αKG-dependent dioxygenases, such as kynurenine-oxoglutarate transaminase and αKG dehydrogenase E1. In fact, DMOG is known to inhibit the αKG dehydrogenase complex and oxygen consumption by mitochondria. This plausible break in specificity could be a reason for concerns on the safety of HIF PHD inhibitor drugs in comparison with the use of recombinant EPO [17].

[2] = system: SH-SY5Y cells; experiment: Oxygen-glucose deprivation (OGD) model, MTT viability; format: cell-based, human; settings: 24 h pretreatment
Protocol: (§1) For oxygen-glucose deprivation (OGD) studies, 40,000 SH-SY5Y cells were plated in each well of 96-well plates. After overnight incubation, cells were treated with 1 and 3 μM concentrations of drugs for 24 h prior to OGD, at the onset of OGD, and at the onset of reperfusion. The compounds’ toxicity at the 1, 5, and 8 μM concentrations was assessed at 48 h. Oxygen glucose deprivation was performed as follows. The medium was replaced with DMEM containing no glucose, and then the cells were transferred to a sealed hypoxic chamber with 5% CO2-95% N2 atmosphere for 2 h. After 2 h incubation, the cells were removed from the hypoxic chamber and resupplied with a regular growth media for reperfusion/recovery. After 24 h incubation, cell viability was quantified using an MTT (4,5-dimethylthiazol-2-yl)-2,5-diphenyltetrazolium bromide, Sigma) assay.
The oxygen deprivation model (OGD) was performed using the human neuroblastoma SH-SY5Y cell line. […] The branched oxyquinoline drugs were added either 24 h before the onset of OGD, at the onset of ischemia induced by OGD insult, or with the reperfusion media at the end of OGD, as described in Methods and shown in Figure 6a.

[3] = system: SH-SY5Y cell line; experiment: Transcriptomic microarray analysis (Gene Chip Human Transcriptome Array 2.0); format: cell-based; settings: for Number of downregulated genes / Number of upregulated genes: 0.5 mM DMOG, 30 μM roxadustat, 2 μM oxyquinolines; for Downregulated genes in common with hypoxia / Upregulated genes in common with hypoxia: hypoxia 2 h + 5 h; for Suppression of ATF4 signaling pathway: heatmap
Protocol: Transcriptomic microanalysis was performed as described in [12]. The human neuroblastoma SH-SY5Y cell line was grown on DMEM/F12 (Paneco Ltd., Moscow, Russia) containing 10% FBS (Thermo Fisher Scientific Inc., Waltham, MA, USA), and the cells were plated in 6-well plates (TPP, Russia) at a cell/well density of 500,000 the day before the drug treatment. The drugs—2 μM oxyquinoline(s), 30 μM (roxadustat), and 0.5 mM DMOG—were added to the cells in triplicate, and the cells were incubated for 5 h. The control wells contained 4 μL DMSO. The hypoxic conditions were created by incubation in 1% O2, 5% CO2, and 94% N2 atmosphere for 2 h (the medium was incubated under the same conditions for 16 h before addition to the cells). After 2 h hypoxia, the cells were returned to the original incubation conditions in a CO2 incubator and kept for another 5 h. After incubation, the cells were lysed with the Qiazol reagent (Qiagen N.V., Venlo, The Netherlands). The RNA was isolated using the RNeasy Micro Kit (Qiagen); the qualitative and quantitative analysis of the RNA was performed as described earlier. The RNA integrity number (RIN) values for all the samples were above 9.5. All steps of the sample preparation, hybridization, washing, staining, and microchip scanning were performed as described before. The mRNA expression profile was analyzed using the Gene Chip Human Transcriptome Array 2.0 (Thermo Fisher Scientific Inc., Waltham, MA, USA). The CEL files obtained during microchip scanning were treated with the Transcriptome Analysis Console 2.0 application (Thermo Fisher Scientific-Affymetrix, Santa Clara, CA, USA). Unannotated probe sets were excluded from the analysis. The results obtained were statistically processed using the TAC 4.0 software (Thermo Fisher Scientific). The statistical reliability for the differences in the expression levels between the intact cells and cells treated with the studied compounds was evaluated using the monofactorial analysis of variance (ANOVA) with the Benjamini–Hochberg correction. The significance threshold was 0.05.

[4] = set-up: method as in PMID 20416509; settings: estimated; read-out: KD of iron chelation; cited from earlier work
[5] = system: SH-SY5Y cells; experiment: Compound toxicity at 48 h incubation without OGD; format: cell-based, human; settings: 8 μM
Protocol: as §1

[6] = 5 h treatment, 1.5-fold cut-off
[7] = 5 h treatment, 1.5-fold cut-off, listed as 570-0720
[8] = 5 h treatment, 1.5-fold cut-off, listed as FG

IC50 ([1]; Homo sapiens, 3 h): 1000 nM
IC50 [1]: < 1000 nM
Structure (SMILES): Cc1ccnc(NC(c2ccc(C(C)(C)C)cc2)c2ccc3cccnc3c2O)c1 (stereo not shown) [4896-3212]
Potency in HIF1 ODD-luc reporter assay (in words, comparative) [1]: submicromolar IC50 values
Interference of free iron with reporter activation [1]: interference of free iron with the reporter activation

IC50 ([1]; Homo sapiens, 3 h): 1000 nM
Structure (SMILES): Cc1ccnc(NC(c2ccc(C(C)C)cc2)c2ccc3cccnc3c2O)c1 (stereo not shown) [4896-3249]
viability at 3 µM ([2]; Homo sapiens, SH-SY5Y, 3 μM, insult alone 70%, MTT after 24 h recovery, read-out: Cell viability after OGD): 90%
Downregulated genes in common with 570-0720 [3, 6]: 231 genes
Downregulated genes in common with DMOG [3, 6]: 52 genes
Downregulated genes in common with FG (roxadustat) [3, 6]: 73 genes
Upregulated genes in common with 570-0720 [3, 6]: 524 genes
Upregulated genes in common with DMOG [3, 6]: 188 genes
Upregulated genes in common with FG (roxadustat) [3, 6]: 257 genes
Number of downregulated genes [3, 6]: 386 genes
Number of upregulated genes [3, 6]: 1092 genes
Downregulated genes in common with hypoxia [3, 6]: 31 genes
Upregulated genes in common with hypoxia [3, 6]: 152 genes
Suppression of ATF4 signaling pathway ([3]; 5 h treatment): inhibits several pro-death pathways with ATF4 being one of them; also recorded: enhanced suppression
Potency in HIF1 ODD-luc reporter assay (in words, comparative) [1]: equally active

IC50 [1]: 500000 nM
Structure (SMILES): COC(=O)CNC(=O)C(=O)OC [DMOG, dimethyl oxalylglycine, reference compound]
Overlap of downregulated genes for the couple roxadustat and DMOG ([3]; 5 h treatment): 80%
Share of downregulated genes overlapping with hypoxia ([3]; 5 h treatment): ~50%
Share of upregulated genes overlapping with those induced by hypoxia ([3]; 5 h treatment): More than 30%
Downregulated genes in common with FG (roxadustat) [3, 6]: 160 genes
Upregulated genes in common with FG (roxadustat) [3, 6]: 476 genes
Number of downregulated genes [3, 6]: 200–260 genes and 204 genes
Number of upregulated genes [3, 6]: 600–700 genes and 608 genes
Downregulated genes in common with hypoxia [3, 6]: 104 genes
Upregulated genes in common with hypoxia [3, 6]: 279 genes
Suppression of ATF4 signaling pathway ([3]; 5 h treatment): weaker
Potency in HIF1 ODD-luc reporter assay (in words, comparative) [1]: millimolar potency

IC50 ([1]; Homo sapiens, 3 h): > 30000 nM
IC50 ([1]; listed as Roxadustat): ~25000 nM
IC50 [1]: 30000 nM
Structure (SMILES): Cc1nc(C(=O)NCC(=O)O)c(O)c2ccc(Oc3ccccc3)cc12 [roxadustat, reference compound]
Overlap of downregulated genes for the couple roxadustat and DMOG ([3]; 5 h treatment): 80%
Share of downregulated genes overlapping with hypoxia ([3]; 5 h treatment): ~50%
Share of upregulated genes overlapping with those induced by hypoxia ([3]; 5 h treatment): More than 30%
Number of downregulated genes [3, 6]: 200–260 genes
Number of upregulated genes [3, 6]: 600–700 genes
Number of downregulated genes [3, 8]: 209 genes
Number of upregulated genes [3, 8]: 714 genes
Downregulated genes in common with hypoxia [3, 6]: 96 genes
Upregulated genes in common with hypoxia [3, 6]: 261 genes
Suppression of ATF4 signaling pathway ([3]; 5 h treatment): weaker
Interference of free iron with reporter activation [1]: not observed

IC50 ([1]; Homo sapiens, 3 h): > 30000 nM
Structure (SMILES): O=C(O)CNC(=O)c1ncc(-c2cccc(Cl)c2)cc1O [vadadustat, reference compound]

The remaining lines, values behind:

Structure (SMILES): Cc1ccnc(NC(c2ccc(C(C)(C)C)cc2)c2cc(Cl)c3cccnc3c2O)c1 (stereo not shown) [5-chloro-neuradapt]
Potency in HIF1 ODD-luc reporter assay (in words, comparative) [1]: almost as active as the original compound

Structure (SMILES): Cc1ccc2ccc(C(Nc3ccccn3)c3ccc(C(C)C)cc3)c(O)c2n1 (stereo not shown) [5704-0720]
Reduction in number of genes overlapped with roxadustat in comparison to isopropyl-neuradapt ([3]; 2 μM, 5 h): ~20%
Downregulated genes in common with DMOG [3, 6]: 38 genes
Downregulated genes in common with FG (roxadustat) [3, 6]: 60 genes
Upregulated genes in common with DMOG [3, 6]: 126 genes
Upregulated genes in common with FG (roxadustat) [3, 6]: 195 genes
Number of downregulated genes [3, 6]: 200–260 genes
Number of upregulated genes [3, 6]: 600–700 genes
Number of downregulated genes [3, 7]: 259 genes
Number of upregulated genes [3, 7]: 600 genes
Downregulated genes in common with hypoxia [3, 6]: 17 genes
Upregulated genes in common with hypoxia [3, 6]: 86 genes
Suppression of ATF4 signaling pathway ([3]; 5 h treatment): no suppression; also recorded: inactive
IC50 ([1]; Homo sapiens, 3 h): 2000 nM
Potency in HIF1 ODD-luc reporter assay (in words, comparative) [1]: ca. two-fold less potent

Structure (SMILES): Oc1cccnc1NC(c1ccc(Cl)cc1)c1ccc2cccnc2c1O (stereo not shown) [adaptaquin, reference compound]
Neuroprotection in OGD ([2]; 1–3 μM): 20–30%

Structure (SMILES): Cc1cc(C2CCCCC2)n(O)c(=O)c1 [ciclopirox]
Kd [4]: 50 nM

Structure (SMILES): Cc1ccc2ccc(C(Nc3ccccn3)c3ccc(C(C)C)cc3)c(O)c2n1 (stereo not shown) [compound 7]
Toxicity at prolonged incubation [5]: least toxic

Structure (SMILES): Cc1ccnc(NC(c2ccc(C(C)(C)C)cc2)c2cc(Cl)c3cccnc3c2O)c1 (stereo not shown) [compound 8]
Toxicity at prolonged incubation [5]: least toxic
